Experimental data taken from patent US11452781B2, “Method of preventing and treating type 1 diabetes, allograft rejection and lung fibrosis (by targeting the ATP/P2X7R axis)” (CHILDREN'S MEDICAL CENTER CORPORATION, priority 2013, dated 2022).
Entries after “also recorded” stand apart in the source; their conditions may differ.

Tests used:
[1] = test system: B6 recipients of BALB/c lung allografts; assay: Mouse orthotopic lung transplant, BALB/c donor and C57BL/6 recipient; assay type: in vivo
Procedure: Orthotopic left lung transplants were performed as previously described {Bizargity, #22; Iken, #21}. Briefly, donor mice were anesthetized with ketamine and xylazine, intubated with a 22 G Angiocath, and ventilated with isoflurane/oxygen. Lungs were flushed with ice cold phosphate buffered saline, left lung harvested and cuffs placed in the pulmonary artery, pulmonary vein and bronchus. Recipient mice were anesthetized and ventilated with isoflurane/oxygen, and left lung transplants performed via a thoracotomy and implantation of the three-cuffed hilar structures. Transplanted lungs were harvested 15 to 60-70 days following transplantation.
Allografts were evaluated 15, 30, and 60-70 days after transplant.
Outcome Measures—In vivo assessment of transplanted lung function was performed by thoracic CT scan imaging and measuring peak airway pressures (PawP) as previously described {Bizargity, #22}. […] Flow cytometry and enzyme-linked immunosorbent spot assay (ELISPOT) for interferon (IFN)-γ and interleukin (IL)-4 were performed as previously described {Vergani, #25; Vergani, #9}.

naïve CD4+ T-cells [2] = assay: ELISPOT, naïve CD4+ T cells stimulated with anti-CD3-Ig and anti-CD28-Ig; assay type: cell-based, mouse
Procedure: (§1) The effect of P2X7R targeting was tested by treatment with oATP during T-cell activation. […] Similarly, in a T-cell proliferation assay, CFSE-labeled naïve CD4^+ T-cells were stimulated for 4 days with 0.5 μg/ml anti-CD3-Ig and anti-CD28-Ig; treatment with 100 μM oATP diminished CD4^+ T-cell proliferation (FIG. 5B, right panel) compared to controls (FIG. 5B, left panel).
To address the mechanisms underlying P2X7R targeting mediated inhibition of cardiac transplant rejection, the inventors analyzed the effect of P2X7R targeting on T-cell activation and Th1/Th17 differentiation in vitro. […] The effect of in vitro P2X7R targeting with oATP during CD4+ T-cell activation was tested. […] Second, in a T-cell proliferation assay, carboxyfluorescein diacetate succinimidyl ester-labeled naïve CD4+ T cells were stimulated for 96 hours with 0.5 μg/mL anti-CD3-Ig and anti-CD28-Ig, and treatment with 100 μM oATP diminished CD4+ T cell proliferation in comparison with controls. […] The inventors next tested the effect of in vitro P2X7R targeting during a Th1/Th17 generation and differentiation assay. […] P2X7R targeting with oATP inhibited Th0 conversion into both Th1 and Th17, as assessed by the percentage of IFN-γ+ and IL-17+ cells, respectively. The inventors show, therefore, that P2X7R targeting through oATP suppresses activation, proliferation, and Th1/Th17 differentiation of CD4+ T cells. The inventors then further investigated the role of P2X7R on T-cell activation and Th1/Th17 differentiation by genetic upregulation of P2X7R. P2X7R cDNA was transduced by using a pMY-IRES-GFP retroviral vector into CD4+ T cells (pmY-P2X7R CD4+ T cells), and upregulation of P2X7R expression was confirmed by Western blot. pmY-P2X7R CD4+ T cells were then challenged with anti-CD3-Ig/anti-CD28-Ig stimulation in an ELISPOT assay. […] In a Th1/Th17 generation assay, pmY-P2X7R CD4+ T cells seemed to display increased differentiation capacity in comparison with pmY-mock CD4+ T cells, as assessed by T-bet and ROR-γ expression.
Several key components of T-cell receptor signaling involved in the alloimmune response were examined, and the phosphorylation kinetics following in vitro anti-CD3-Ig/anti-CD28-Ig-mediated CD4+ T-cell activation was evaluated by using the Luminex assay. […] The inventors first confirmed that Colivelin (Col) was able to restore the activation-induced phosphorylation of STAT3 in a dose-dependent manner in oATP-treated CD4+ T cells by Western blotting. […] The effect of oATP and Colivelin on STAT3 phosphorylation and T-cell function was also evaluated following cardiac transplantation.

islet allografts = assay: Islet allograft pathology, RT-PCR transcripts, insulin and glucagon content; assay type: in vivo, mouse
Procedure: The presence of […] was then analyzed in the graft infiltrate by quantification, via RT-PCR, by assessing intra-graft Tbet and Rorc mRNA expression.

naïve CD4+ T-cells [3] = assay: CFSE T-cell proliferation assay, anti-CD3-Ig/anti-CD28-Ig; assay type: cell-based, mouse; conditions: 100 μM oATP, 4 days (96 hours)
Procedure: as §1
To address the mechanisms underlying P2X7R targeting mediated inhibition of cardiac transplant rejection, the inventors analyzed the effect of P2X7R targeting on T-cell activation and Th1/Th17 differentiation in vitro. […] The effect of in vitro P2X7R targeting with oATP during CD4+ T-cell activation was tested. […] Second, in a T-cell proliferation assay, carboxyfluorescein diacetate succinimidyl ester-labeled naïve CD4+ T cells were stimulated for 96 hours with 0.5 μg/mL anti-CD3-Ig and anti-CD28-Ig, and treatment with 100 μM oATP diminished CD4+ T cell proliferation in comparison with controls. […] P2X7R targeting with oATP inhibited Th0 conversion into both Th1 and Th17, as assessed by the percentage of IFN-γ+ and IL-17+ cells, respectively. […] In a Th1/Th17 generation assay, pmY-P2X7R CD4+ T cells seemed to display increased differentiation capacity in comparison with pmY-mock CD4+ T cells, as assessed by T-bet and ROR-γ expression.

[4] = test system: splenocytes of cardiac-transplanted mice; assay: Immune profiling of cardiac-transplanted mice (ELISPOT with BALB/c irradiated splenocytes, flow cytometry); assay type: in vivo, mouse
Procedure: To evaluate the effect of P2X7R targeting on the immune system of cardiac-transplanted mice, splenocytes were harvested at days 7 and 100 post-transplantation and were challenged with BALB/c irradiated splenocytes in an ELISPOT assay.
The effect of P2X7R targeting in preventing cardiac transplant rejection was tested by using the P2X7R inhibitor oATP. Untreated C57BL/6 mice transplanted with BALB/c hearts (fully mismatched) invariably rejected grafts within 7 days (mean survival time of 7 days). P2X7R targeting with the use of the short-term treatment of oATP ([…] oATP intraperitoneally daily for 14 days) induced long-term cardiac transplant survival (>100 days) in 80% of recipients. To evaluate the effect of P2X7R targeting on the immune system of cardiac-transplanted mice, splenocytes were harvested at days 7 and 100 posttransplantation and were challenged with BALB/c irradiated splenocytes in an enzyme-linked immunosorbent spot (ELISPOT) assay. […] The percentages of CD4+ Teffs and CD8+ Teffs were reduced by in vivo short-term P2X7R targeting in mice at days 7 and 100 posttransplantation in comparison with untreated mice.
mice adoptively transferred with naïve C57BL/6 splenocytes, and no protection was observed when splenocytes obtained from mice with long-term graft function were coadoptively transferred with naïve splenocytes. Conversely, prolonged graft survival >50 days was observed when splenocytes obtained from cardiac-transplanted mice with long-term graft function were adoptively transferred. […] The immunocompetence of treated mice at day 100 after transplantation was tested.

[5] = test system: P2X7R−/− mice transplanted with BALB/c hearts; assay: Cardiac transplantation into P2X7R-/- mice; assay type: in vivo, mouse; conditions: P2X7R−/− recipients
Excerpt: oATP has been proposed to exert secondary immunomodulatory mechanisms, primarily related to the inhibition of the remaining P2XsR. To verify that the effect on the prevention of cardiac transplant rejection was predominantly due to P2X7R inhibition, the P2X7R−/− C57BL/6 mouse model was used. BALB/c hearts were transplanted into P2X7R−/− mice, and cardiac transplant survival was compared with that of wild-type recipients.

[6] = test system: C57BL/6 mice transplanted with bm12 hearts; assay: Chronic cardiac transplant rejection, bm12 donors to C57BL/6 recipients; assay type: in vivo, mouse
Procedure: To evaluate the importance of P2X7R signaling and targeting in a clinically relevant setting, the effect of oATP treatment in a model of cardiac transplant chronic rejection (bm12 donors to C57BL/6 recipients) was tested. […] Cardiac allograft pathology was assessed 40 days after transplantation of bm12 hearts into C57BL/6 mice.

## periodate-oxidized ATP [oATP]
[1]; 15 to ≥60 days
  lung function (PawP): significantly improved
[1]; 15 days
  percentage of Th17 cells: not a significant difference
  total number of Th17 cells: reduction; also recorded: fewer
  total number of Treg: reduction; also recorded: fewer
[1]; 15 days post transplant
  BAL ATP levels: significant reduction
[1]; 30 days, CSA 10 mg/kg/day, CTLA-4Ig 250 μg, oATP 250 μg/day, Rap 0.1 mg/kg/day
  acute rejection, comparison of treatments (FIG. 17): better outcomes than cyclosporine alone; also recorded: more robust as compared to CSA
[1]; all three time points
  thoracic CT imaging of left lung allografts: little infiltrate
[1]; day 15, flow cytometry, vs untreated
  number of leucocytes and lymphocytes isolated from lung allografts: nearly half; also recorded: significantly fewer
[1]; lung allograft T cells
  effector memory T cells (CD44highCD62Llow): inhibitory effect; also recorded: significant reduction
[1]; most pronounced after 15 days
  IFN-γ and IL-4 response of isolated T cells (ELISPOT): impaired
[1]; mouse, in vivo
  CD4 and CD8 T cells within lung allografts: decrease
  amount of inflammation (score 0-4) / histology: remarkable reduction; also recorded: limited disease
  percentage of CD8 Tcm (CD8+CD44+CD62L+CCR7+): increased
  percentage of Treg: not a remarkable difference
[1]; oATP daily IP
  lung allograft survival / function: > 60 days
[1]; oATP days 15-30
  lung function (PawP) after rescue dosing: improved; also recorded: significant improvement
naïve CD4+ T-cells [2]; 100 μM oATP, 24 hours
  number of IFN-γ-producing CD4+ T-cells: significantly reduced; also recorded: suppressed
naïve CD4+ T-cells [2]; oATP present during stimulation
  expression levels of the P2XsR: not influenced
Islet allografts; day 14 (oATP), long-term (oATP+rapamycin)
  islet structure, insulin and glucagon staining: preserved insulin staining; also recorded: maintained
Islet allografts; day 14, n=3
  reduction of Tbet mRNA expression vs untreated: threefold decrease
naïve CD4+ T-cells [3]
  CD4+ T-cell proliferation: diminished; also recorded: suppressed
[4]; day 7
  percentage of Tregs: No differences
[4]; day 100
  percentage of Tregs: an increase
[4]; days 7 and 100 vs untreated
  percentages of CD4+ Teffs and CD8+ Teffs: reduced
[4]; oATP-treated mice at day 100 vs naïve mice
  IFN-γ-producing cells after ovalbumin immunization (immunocompetence): no differences
[4]; oATP-treated vs untreated, day 7
  number of IL-4-producing cells (ELISPOT): increased
[4]; oATP-treated vs untreated, day 7 (and day 100)
  number of IFN-γ-producing cells (ELISPOT): Reduced; also recorded: fewer
[4]; vs untreated, days 7 and 100
  percentage of Th17 cells (CD4+IL17+): similarly reduced; also recorded: fewer
[5]
  ability to prolong cardiac transplant survival: severely altered
[6]; 40 days after transplantation
  cardiac allograft pathology (infiltration, coronaropathy): only mild cellular infiltration and the absence of coronaropathy
[6]; mouse, in vivo
  IFN-γ-producing cells (ELISPOT): reduced number
  IL-4-producing cells (ELISPOT): increased number
